# Results as given in patent US9992994B2, “Agricultural and detergent compositions containing a tertiary amide as adjuvant or as surfactant” (Taminco BVBA, priority 2011, dated 2018).
# System: not listed separately
# Assay: solubility / miscibility in water and dodecane
# Assay type: physicochemical
# Conditions: not given
# Source text: R1 is preferably an aliphatic group, in particular a fatty chain, having 5-13 carbon atoms (i.e. a C5 to C13 carbon chain), preferably 5-9 carbon atoms. This embodiment is especially advantageous when the amide is a diamine of formula (I). […] This is not only the case when one or more of the R2, R3, R4 and R5 groups are ethanol and/or tertiary propanol groups, but also when these groups are alkyl groups, in particular C1 to C3 alkyl groups. The R2, R3, R4 and R5 groups are preferably methyl groups. The corresponding DMAPA amides, on the other hand, show only poor water solubility.
# Furthermore, they can be used efficiently in highly concentrated (so-called ‘high load’) agrochemical compositions to prevent phase separation to occur. The amphiphilic behaviour of the bisDMAPA amides is further illustrated in example 4.
Compound,solubility in dodecane,solubility in water
"CCCCCCCC(=O)N(CCCN(C)C)CCCN(C)C [N,N-bis(3-(dimethylamino)propyl)octanamide]",completely soluble,completely soluble

# System: winter wheat (cv. Ilias)
# Assay: adjuvant for glyphosate test on wheat
# Assay type: in vivo
# Conditions: IPA-glyphosate 2.3 mM (77.8 g ae/ha at 200 L/ha), where named, 0.25% w/v, 21 DAT
# Experimental: (§1) Wheat plants were used as a model for difficult to wet grasses and black nightshade was used as a model for a plant with an easy to wet but difficult to permeate leaf surface.
# (§2) After emergence, the wheat seedlings were thinned to six plants per pot for the efficacy experiments. Black nightshade seedlings were thinned to one plant per pot. Black nightshade and wheat were treated at the four- and the three-leaf stage, respectively. The fresh weights of the plants were measured 14 days after treatment (14 DAT; black nightshade) or 21 days after treatment (21 DAT; wheat).
# (§3) Demineralized water was used as the carrier. […] Based on previous work, these rates were 20.3 g ae/ha (equivalent to 0.6 mM) on black nightshade and 77.8 g ae/ha (equivalent to 2.3 mM at 200 L/ha) on wheat (ae=acid equivalent).
# (§4) The fresh weight of the untreated plant was taken as a reference (100%). […] An industrial standard was also included in the test series.
row,Compound,Fresh Weight WHEAT [g]
1,"CC(C)N.O=C(O)CNCP(=O)(O)O [IPA-glyphosate, reference compound]",12.6
2,"CCCCCCCC(=O)N(CCCN(C)C)CCCN(C)C [N,N-bis(3-(dimethylamino)propyl)octanamide]",2.3
3,"CCCCCCCCCCCC(=O)N(CCC[N+](C)(C)C)CCC[N+](C)(C)C.[Cl-].[Cl-] [R2, R3, R4, R5, R6 = —CH3 R1 = —C11H23]",14.8
4,"CCCCCCCCCCCCCCCCCC(=O)N(CCC[N+](C)(C)C)CCC[N+](C)(C)C.[Cl-].[Cl-] [R2, R3, R4, R5, R6 = —CH3 R1 = —C17H35]",14.7

# Same assay, conditions: untreated plant = 100%, IPA-glyphosate 2.3 mM, where named, 0.25% w/v, 21 DAT
row,Compound,Relative weight WHEAT (%)
1,"CC(C)N.O=C(O)CNCP(=O)(O)O [IPA-glyphosate, reference compound]",71.7
2,"CCCCCCCC(=O)N(CCCN(C)C)CCCN(C)C [N,N-bis(3-(dimethylamino)propyl)octanamide]",13.0
3,"CCCCCCCCCCCC(=O)N(CCC[N+](C)(C)C)CCC[N+](C)(C)C.[Cl-].[Cl-] [R2, R3, R4, R5, R6 = —CH3 R1 = —C11H23]",83.8
4,"CCCCCCCCCCCCCCCCCC(=O)N(CCC[N+](C)(C)C)CCC[N+](C)(C)C.[Cl-].[Cl-] [R2, R3, R4, R5, R6 = —CH3 R1 = —C17H35]",83.5

# System: common lambsquarter (Chenopodium album L.; CHEAL)
# Assay: adjuvant for Carfentrazon-ethyl test
# Assay type: in vivo
# Conditions: Spotlight Plus, sub-optimal rate + N,N-bis(3-(dimethylamino)propyl)octanamide 0.25% (w/v); 7 DAT
# Experimental: In this test we looked at the performance with Carfentrazone-ethyl (Spotlight Plus from FMC) on common lambsquarter (Chenopodium album L.; CHEAL).
# After emergence, the seedlings were thinned to two plants per pot for the efficacy experiments. The common lambsquarters were treated at the four-leaf stage. The fresh weights of the plants were measured 7 days after treatment (7 DAT).
# The following herbicide was used in the treatment solutions: Carfentrazone-ethyl, Spotlight Plus (FMC) ME formulation, 60 g a.i./L.
# Demineralized water was used as the carrier.
row,Compound,Fresh Weight CHEAL (g) Herbicide + Adjuvant [g]
1,CCOC(=O)C(Cl)Cc1cc(-n2nc(C)n(C(F)F)c2=O)c(F)cc1Cl (stereo not drawn) [Carfentrazone-ethyl],0.7

# Same assay, conditions: Spotlight Plus, sub-optimal rate, no adjuvant; 7 DAT; average of four replicates
row,Compound,Fresh weight CHEAL (g) Only herbicide [g]
1,CCOC(=O)C(Cl)Cc1cc(-n2nc(C)n(C(F)F)c2=O)c(F)cc1Cl (stereo not drawn) [Carfentrazone-ethyl],4.9

# System: not listed separately
# Assay: solubility temperatures of 1 wt % solutions
# Assay type: physicochemical
# Conditions: not given
row,Compound,Solubility temperatures [° C.] 1 wt % [°C]
1,"CCCCCCCCCCCCCCCC[N+](C)(C)C.[Br-] [CTAB, Cetrimonium bromide]",25
2,"CCCCCCCCCCCC[N+](C)(C)C.[Br-] [DTAB, Dodecyl Trimethyl Ammonium Bromide]",<0
3,"CCCCCCCCCCCC(=O)[O-].[Na+] [NaC12, Sodium Laurate]",25

# System: not listed separately
# Assay: compatibility of diquats with anionic surfactant in water
# Assay type: physicochemical
# Design: key: Cl. = Clear; Blu. = Bluish; Visc. = Viscous; Prec. = Precipitate; Turb. = Turbid
# Conditions: 1 wt % total surfactant in water, ambient temperature, 100% diquat
# Experimental: To delimit the applicability of the Diquats the compatibility in different ratios with LES was tested in the temperature range between 0° C. and 90° C. […] With a hydrocarbon tail of up to 10 carbon atoms no precipitation was observed and with increasing chain length only a very narrow region of mixing ratios led to an insoluble deposit.
row,Compound,"Compatibility observation, 100% of Diquat"
1,CCCCCCCC(=O)N(CCC[N+](C)(C)Cc1ccccc1)CCC[N+](C)(C)Cc1ccccc1.[Br-].[Br-] [C8BnBr],Cl.

# Same assay, conditions: mixture with Sodium Laureth Sulfate, 1 wt % total surfactant in water, ambient temperature, 10% diquat
row,Compound,"Compatibility observation, 10% of Diquat"
1,CCCCCCCC(=O)N(CCC[N+](C)(C)Cc1ccccc1)CCC[N+](C)(C)Cc1ccccc1.[Br-].[Br-] [C8BnBr],Cl.

# Same assay, conditions: mixture with Sodium Laureth Sulfate, 1 wt % total surfactant in water, ambient temperature, 20% diquat
row,Compound,"Compatibility observation, 20% of Diquat"
1,CCCCCCCC(=O)N(CCC[N+](C)(C)Cc1ccccc1)CCC[N+](C)(C)Cc1ccccc1.[Br-].[Br-] [C8BnBr],Cl.

# Same assay, conditions: mixture with Sodium Laureth Sulfate, 1 wt % total surfactant in water, ambient temperature, 30% diquat
row,Compound,"Compatibility observation, 30% of Diquat"
1,CCCCCCCC(=O)N(CCC[N+](C)(C)Cc1ccccc1)CCC[N+](C)(C)Cc1ccccc1.[Br-].[Br-] [C8BnBr],Cl.

# Same assay, conditions: mixture with Sodium Laureth Sulfate, 1 wt % total surfactant in water, ambient temperature, 40% diquat
row,Compound,"Compatibility observation, 40% of Diquat"
1,CCCCCCCC(=O)N(CCC[N+](C)(C)Cc1ccccc1)CCC[N+](C)(C)Cc1ccccc1.[Br-].[Br-] [C8BnBr],Prec.

# Same assay, conditions: mixture with Sodium Laureth Sulfate, 1 wt % total surfactant in water, ambient temperature, 50% diquat
row,Compound,"Compatibility observation, 50% of Diquat"
1,CCCCCCCC(=O)N(CCC[N+](C)(C)Cc1ccccc1)CCC[N+](C)(C)Cc1ccccc1.[Br-].[Br-] [C8BnBr],Prec.

# Same assay, conditions: mixture with Sodium Laureth Sulfate, 1 wt % total surfactant in water, ambient temperature, 60% diquat
row,Compound,"Compatibility observation, 60% of Diquat"
1,CCCCCCCC(=O)N(CCC[N+](C)(C)Cc1ccccc1)CCC[N+](C)(C)Cc1ccccc1.[Br-].[Br-] [C8BnBr],Prec.

# Same assay, conditions: mixture with Sodium Laureth Sulfate, 1 wt % total surfactant in water, ambient temperature, 70% diquat
row,Compound,"Compatibility observation, 70% of Diquat"
1,CCCCCCCC(=O)N(CCC[N+](C)(C)Cc1ccccc1)CCC[N+](C)(C)Cc1ccccc1.[Br-].[Br-] [C8BnBr],Prec.

# Same assay, conditions: mixture with Sodium Laureth Sulfate, 1 wt % total surfactant in water, ambient temperature, 80% diquat
row,Compound,"Compatibility observation, 80% of Diquat"
1,CCCCCCCC(=O)N(CCC[N+](C)(C)Cc1ccccc1)CCC[N+](C)(C)Cc1ccccc1.[Br-].[Br-] [C8BnBr],Prec.

# Same assay, conditions: mixture with Sodium Laureth Sulfate, 1 wt % total surfactant in water, ambient temperature, 90% diquat
row,Compound,"Compatibility observation, 90% of Diquat"
1,CCCCCCCC(=O)N(CCC[N+](C)(C)Cc1ccccc1)CCC[N+](C)(C)Cc1ccccc1.[Br-].[Br-] [C8BnBr],Prec.

# System: not listed separately
# Assay: Manometric Respirometry Test (biodegradability)
# Conditions: after 28 days
# Experimental: Biodegradability test of N,N-bis(3-(dimethylamino) propyl)-octanamide was tested in a Manometric Respirometry Test according to Commission Regulation 440/2008/EC, Method C.4-D of May 30, 2008: Manometric Respirometry Test (EEC Publication N° L142/496, May 2008).
# The percentage of biodegradation was 65% after 28 days.
Compound,biodegradability classification,percentage of biodegradation [%]
"CCCCCCCC(=O)N(CCCN(C)C)CCCN(C)C [N,N-bis(3-(dimethylamino)propyl)octanamide]",Readily Biodegradable,65

# System: Black nightshade (SOLNI)
# Assay: adjuvant for glyphosate test on black nightshade
# Assay type: in vivo
# Conditions: IPA-glyphosate 0.6 mM (20.3 g ae/ha at 200 L/ha), where named, 0.25% w/v, 14 DAT
# Experimental: as §1, §2, §3, §4
row,Compound,Fresh Weight SOLNI [g]
1,"CC(C)N.O=C(O)CNCP(=O)(O)O [IPA-glyphosate, reference compound]",6.4
2,"CCCCCCCC(=O)N(CCCN(C)C)CCCN(C)C [N,N-bis(3-(dimethylamino)propyl)octanamide]",1.6
3,"CCCCCCCCCCCC(=O)N(CCC[N+](C)(C)C)CCC[N+](C)(C)C.[Cl-].[Cl-] [R2, R3, R4, R5, R6 = —CH3 R1 = —C11H23]",5.8
4,"CCCCCCCCCCCCCCCCCC(=O)N(CCC[N+](C)(C)C)CCC[N+](C)(C)C.[Cl-].[Cl-] [R2, R3, R4, R5, R6 = —CH3 R1 = —C17H35]",2.8

# Same assay, conditions: untreated plant = 100%, IPA-glyphosate 0.6 mM, where named, 0.25% w/v, 14 DAT
row,Compound,Relative weight SOLNI (%)
1,"CC(C)N.O=C(O)CNCP(=O)(O)O [IPA-glyphosate, reference compound]",55.2
2,"CCCCCCCC(=O)N(CCCN(C)C)CCCN(C)C [N,N-bis(3-(dimethylamino)propyl)octanamide]",14.1
3,"CCCCCCCCCCCC(=O)N(CCC[N+](C)(C)C)CCC[N+](C)(C)C.[Cl-].[Cl-] [R2, R3, R4, R5, R6 = —CH3 R1 = —C11H23]",50.0
4,"CCCCCCCCCCCCCCCCCC(=O)N(CCC[N+](C)(C)C)CCC[N+](C)(C)C.[Cl-].[Cl-] [R2, R3, R4, R5, R6 = —CH3 R1 = —C17H35]",24.0

# System: not given
# Assay: not given
# Conditions: no pH given; 20° C.; cited from earlier work
row,Compound,log Kow
1,CCOC(=O)C(Cl)Cc1cc(-n2nc(C)n(C(F)F)c2=O)c(F)cc1Cl (stereo not drawn) [Carfentrazone-ethyl],3.4
